Laboratory results taken from patent publication US9062284B2, “Uses and detection of herbicide resistance genes for resistance to aryloxyalkanoate herbicides” (Dow ArgoSciences LLC, priority 2007, dated 2015).

Biological target: T1, AAD-13 (v2) (Sphingobium herbicidovorans, UniProt Q700X4)
T1 construct: His tag (C); made in house; host or cells: E. coli BL-21, pET-26b(+)
Experiment: not given
Format: biochemical
Conditions: substrate 0.5 mM (asterisk); rate as percentage of 2,4-D rate
Excerpt: In order to test a broad range of substrates, the production of succinate from the breakdown of α-ketoglutarate was detected spectrophotometricly using a protocol based on the method of Luo et. al. (2006) (Anal. Biochem. 353: 69-74). As depicted in FIG. 3, the concomitant breakdown of α-ketoglutarate and the substrate of interest via AAD-13, results in the production of succinate. Succinate is further modified to succinyl-CoA by succinyl-CoA synthetase which consumes ATP and produces ADP. ADP is then consumed by the commonly employed pyruvate kinase/lactate dehydrogenase enzymatic coupling system (Sigma P0294). The resulting conversion of NADH to NAD is monitored spectrophotometrically at 340 nm.
Identification of AAD-13 (v2) substrates in vitro was based on enzymatic activity detected during continuous spectrophotometric monitoring of a 0.2 mL reaction volume in a 96 well microtiter plate. Reaction conditions were as follows: 100 mM MOPS pH 7.0, 0.4 mM NADH, 0.4 mM ATP, 0.4 mM CoA, 1 mM PEP, 10 mM MgCl2, 0.1 mM […] (solubilized in HCl), and 0.1 mM ascorbate, 1 mM α-ketoglutarate and sufficient AAD-13 (v2) to produce an observable rate in the presence of 2,4-D. Coupling enzymes (SCS/PK/LDH) were adjusted by batch to ensure adequate coupling, and potential substrates were generally assayed at 1 mM. Alterations in substrate concentrations were made as needed to adjust for solubility. Reactions were initiated by either the addition of AAD-13 (v2) or potential substrate. The rate of substrate independent conversion of α-ketoglutarate to succinate by AAD was monitored under the above assay conditions and subtracted from the observed reaction rates. […] Additionally, propionate compounds were checked for pyruvate contamination by spectrophotometrically monitoring the consumption of NADH in the presence of compound and PK/LDH.
Reaction rates are reported as a percentage of the 2,4-D reaction rate obtained in the same sample set. […] It should be noted that faster rates can be more difficult to accurately compare depending on the percentage of available substrate consumed. […] As a result, highly efficient substrates will be properly grouped when compared to low efficiency substrates. Within the grouping of highly efficient substrates however, compounds may not be quantitatively separated by a screen using single rates of substrate and AAD.
In the case of `O=C(O)COc1ccc(Cl)c2cccnc12` [compound 204558], the “% of 24D activity” value is reported as “Not Detected”. For `O=C(O)c1cc2cc([N+](=O)[O-])ccc2o1` [compound 238166], the “% of 24D activity” value was “Not Detected”. In the case of `O=C(O)COc1ccc(C(=O)c2ccc(Cl)cc2)c(Cl)c1Cl` [compound 761310], the “% of 24D activity” value is reported as “Not Detected”. For `O=C(O)c1cc2cc(Cl)cc(Cl)c2o1` [compound 11077344], the “% of 24D activity” value was “Not Detected”. For `O=C(O)c1cc2cc(Cl)ccc2o1` [compound 11077347], the “% of 24D activity” value was “Not Detected”.

Same assay, conditions: substrate 1 mM; rate as percentage of 2,4-D rate in same sample set; propionate rates divided by two
In the case of `O=C(O)COc1ccc(Cl)cc1Cl` [2,4-D, 2,4-dichlorophenoxyacetic acid], the “% of 24D activity” value is reported as 100%. In the case of `Nc1c(Cl)ccc(OCC(=O)O)c1Cl` [3-amino 24D], the “% of 24D activity” value is reported as 151%. In the case of `O=C(O)CCCOc1ccc(Cl)cc1Cl` [24DB], the “% of 24D activity” value is reported as 2%. For `Cc1cc(Cl)ccc1OC(C)C(=O)O` (centres unmarked) [Mecoprop], the “% of 24D activity” value was 169%. With `C[C@@H](Oc1ccc(Oc2nc3ccc(Cl)cc3o2)cc1)C(=O)O` [R-fenoxaprop] the “% of 24D activity” value was 2%. With `C[C@H](Oc1ccc(Cl)cc1Cl)C(=O)O` [S-dichlorprop] the “% of 24D activity” value was 233%. For `CC(Oc1nc(F)c(Cl)c(N)c1Cl)C(=O)O` (stereo not drawn) [alpha methyl floroxypyr], the “% of 24D activity” value was 43%. With `CC(Oc1ccc(C(=O)c2ccc(Cl)cc2)cc1)C(=O)O` (centres unmarked) [compound 8563] the “% of 24D activity” value was 64%. In the case of `CC(Oc1ncc(Cl)cc1Cl)C(=O)O` (centres unmarked) [compound 66357], the “% of 24D activity” value is reported as 24%. For `CC(Oc1ccc(C(=O)c2ccccc2)cc1)C(=O)O` (centres unmarked) [compound 66732], the “% of 24D activity” value was greater than 100%. With `CC(Oc1ccc(F)cc1Cl)C(=O)O` (centres unmarked) [compound 83293] the “% of 24D activity” value was 106%. In the case of `CC(Oc1nc(F)c(Cl)cc1Cl)C(=O)O` (centres unmarked) [compound 91767], the “% of 24D activity” value is reported as 88%. In the case of `O=C(O)COCc1ccccc1` [compound 93116], the “% of 24D activity” value is reported as 128%. In the case of `O=C(O)COc1nc(F)c(Cl)cc1Cl` [compound 93833], the “% of 24D activity” value is reported as 33%. With `CC(OCc1ccccc1)C(=O)O` (centres unmarked) [compound 118942] the “% of 24D activity” value was 46%. With `O=C(O)COc1ccc(F)cc1Cl` [compound 124988] the “% of 24D activity” value was 44%. In the case of `O=C(O)/C=C/c1ccccc1Cl` [compound 187507], the “% of 24D activity” value is reported as 10%. For `CCCC(Oc1cc(Cl)c(Cl)cc1Cl)C(=O)O` (centres unmarked) [compound 188495], the “% of 24D activity” value was 19%. In the case of `CCCCOC(C)C(=O)O` (centres unmarked) [compound 191716], the “% of 24D activity” value is reported as 66%. With `O=C(O)COc1ccc(C(=O)c2ccccc2)cc1` [compound 193908] the “% of 24D activity” value was 56%. In the case of `O=C(O)c1cc2cc(Br)cc(Br)c2o1` [compound 198167], the “% of 24D activity” value is reported as “Not Detected”. In the case of `O=C(O)COC(c1ccccc1)C(F)(F)F` (centres unmarked) [compound 470901], the “% of 24D activity” value is reported as 30%. For `O=C(O)COCc1ccc(Cl)cc1` [compound 475726], the “% of 24D activity” value was 112%. For `C=C(C)CCOCC(=O)O` [compound 571320], the “% of 24D activity” value was 39%. For `CC(Oc1nn(-c2ccccc2)c(-c2ccccc2)c1Cl)C(=O)O` (centres unmarked) [compound 657338], the “% of 24D activity” value was 5%. With `CC(Oc1nn(-c2ccccc2)c(-c2ccccc2)c1Br)C(=O)O` (centres unmarked) [compound 657339] the “% of 24D activity” value was 5%. In the case of `CC(Oc1ccc(Cl)c(N)c1Cl)C(=O)O` (centres unmarked) [compound 11113675], the “% of 24D activity” value is reported as 113%. For `O=C(O)COc1cc(N2C(=O)C3=C(CCCC3)C2=O)c(F)cc1Cl` [compound 11213586], the “% of 24D activity” value was 2%. For `O=C(O)/C=C\c1ccccc1Cl` [compound 11453845], the “% of 24D activity” value was 13%. For `CC(Oc1ccc(Oc2ccc(Cl)cc2Cl)cc1)C(=O)O` (centres unmarked) [diclofop], the “% of 24D activity” value was greater than 100%. In the case of `CC(Oc1ccc(Oc2ccc(C(F)(F)F)cn2)cc1)C(=O)O` (centres unmarked) [fluazifiop], the “% of 24D activity” value is reported as roughly 50%. In the case of `CC(Oc1ccc(Cl)cc1Cl)C(=O)O` (centres unmarked) [r,s dichlorprop, dichlorprop], the “% of 24D activity” value is reported as 195%.

Tested on: AAD-13 (v1) transformed T1 Arabidopsis
Experiment: Postemergence herbicide response of AAD-13 (v1) T1 Arabidopsis
Format: in vivo, Arabidopsis thaliana
Conditions: 2,240 g ae/ha 2,4-D
Experimental: Seven days after planting (DAP) and again 11 DAP, T1 plants (cotyledon and 2-4-lf stage, respectively) were sprayed with a 0.2% solution of Liberty herbicide (200 g ai/L glufosinate, Bayer Crop Sciences, Kansas City, Mo.) at a spray volume of 10 ml/tray (703 L/ha) using a DeVilbiss compressed air spray tip to deliver an effective rate of 280 g ai/ha glufosinate per application. Survivors (plants actively growing) were identified 4-7 days after the final spraying and transplanted individually into 3-inch pots prepared with potting media (Metro Mix 360). Transplanted plants were covered with humidity domes for 3-4 days and placed in a 22° C. growth chamber as before or moved to directly to the greenhouse. Domes were subsequently removed and plants reared in the greenhouse (22±5° C., 50±30% RH, 14 h light:10 dark, minimum 500 μE/m^2s^1 natural+supplemental light) at least 1 day prior to testing for the ability of AAD-13 (v1) to provide phenoxy auxin herbicide resistance.
T1 plants were then randomly assigned to various rates of 2,4-D. For Arabidopsis, 50 g ae/ha 2,4-D is an effective dose to distinguish sensitive plants from ones with meaningful levels of resistance. Elevated rates were also applied to determine relative levels of resistance (280, 560, 1120, or 2240 g ae/ha). Tables 11 and 12 show comparisons drawn to an aryloxyalkanoate herbicide resistance gene (AAD-12 (v1)) previously described in PCT/US2006/042133.
All auxin herbicide applications were made using the DeVilbiss sprayer as described above to apply 703 L/ha spray volume (0.4 ml solution/3-inch pot) or applied by track sprayer in a 187 L/ha spray volume. 2,4-D used was either technical grade (Sigma, St. Louis, Mo.) dissolved in DMSO and diluted in water (<1% DMSO final concentration) or the commercial dimethylamine salt formulation (456 g ae/L, NuFarm, St Joseph, Mo.). Dichlorprop used was commercial grade formulated as potassium salt of R-dichlorprop (600 g ai/L, AH Marks). As herbicide rates increased beyond 800 g ae/ha, the pH of the spray solution became exceedingly acidic, burning the leaves of young, tender Arabidopsis plants and complicating evaluation of the primary effects of the herbicides.
The first Arabidopsis transformations were conducted using AAD-13 (v1) (plant optimized gene). T1 transformants were first selected from the background of untransformed seed using a glufosinate selection scheme. Over 160,000 T1 seed were screened and 238 glufosinate resistant plants were identified (PAT gene), equating to a transformation/selection frequency of 0.15% which lies in the normal range of selection frequency of constructs where PAT+Liberty are used for selection. T1 plants selected above were subsequently transplanted to individual pots and sprayed with various rates of commercial aryloxyalkanoate herbicides. Table 11 compares the response of AAD-13 (v1) and control genes to impart 2,4-D resistance to Arabidopsis T1 transformants. Response is presented in terms of % visual injury 2 WAT. […] An arithmetic mean and standard deviation is presented for each treatment. The range in individual response is also indicated in the last column for each rate and transformation. PAT/Cry1F-transformed Arabidopsis served as an auxin-sensitive transformed control. The AAD-13 (v1) gene imparted herbicide resistance to individual T1 Arabidopsis plants. Within a given treatment, the level of plant response varied greatly and can be attributed to the fact each plant represents an independent transformation event. Of important note, at each 2,4-D rate tested, there were individuals that were unaffected while some were severely affected. […] At high rates the spray solution becomes highly acidic unless buffered therefore some of the injury may be attributed to the acidity of the spray solution. Arabidopsis grown mostly in the growth chamber has a very thin cuticle and severe burning effects can complicate testing at these elevated rates. […]
For `O=C(O)COc1ccc(Cl)cc1Cl` [2,4-D, 2,4-dichlorophenoxyacetic acid], the population injury average was “about 15%”.

Biological target: T2, AAD-13 (Sphingobium herbicidovorans, UniProt Q700X4)
T2 sequence (Q700X4 with tags, fused parts or gaps): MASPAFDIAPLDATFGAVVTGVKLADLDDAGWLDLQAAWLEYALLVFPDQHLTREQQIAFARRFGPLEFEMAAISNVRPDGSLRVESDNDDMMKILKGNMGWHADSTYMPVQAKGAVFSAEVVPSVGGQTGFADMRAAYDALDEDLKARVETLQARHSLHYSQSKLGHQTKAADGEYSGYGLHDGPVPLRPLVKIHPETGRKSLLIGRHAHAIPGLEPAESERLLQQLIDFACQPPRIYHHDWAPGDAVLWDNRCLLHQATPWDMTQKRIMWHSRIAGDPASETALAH
Experiment: not given
Conditions: CNPP as substrate, pH 6.75
With `CC(Oc1ccc([N+](=O)[O-])cc1Cl)C(=O)O` (centres unmarked) [CNPP] the Km was 31 ± 5.5 µM and the kcat was 0.27 ± 0.0132 s⁻¹.

Tested on: AAD-2 (v1) transformed T1 Arabidopsis
Experiment: not given
Conditions: 200 g ae/ha 2,4-D; see PCT/US2005/014737; cited from earlier work
For `O=C(O)COc1ccc(Cl)cc1Cl` [2,4-D, 2,4-dichlorophenoxyacetic acid], the overall population injury is given as “about 83%”.
